Measurements taken from US9611457B2, “Triazine derivatives as differentiation catalysts” (TECHNISCHE UNIVERSITAET WIEN, priority 2011, dated 2017).

What was measured:
[1] = system: Atrial natriuretic factor (ANF) expression, P19 cells; assay: ANF test (ANF promoter luciferase reporter) in P19 cells; format: cell-based, murine; design: key to Evaluation (luminescence in relation to the blank): −: decrease of luminescence compared to the blank value; +: measurable increase; ++: at least 1.5-fold increase; +++: at least 2-fold increase; details: for fold induction at 1 µM: Mus musculus, 192 h, read-out: Evaluation (luminescence in relation to the blank); for fold induction at 1 µM / Evaluation (luminescence in relation to the blank): P19 cells (**), compound 1 μM in DMSO, 8 days culture, relative to DMSO blank
Description: Atrial natriuretic factor (ANF) or atrial natriuretic peptide (ANP) is a cyclic peptide hormone made up of 28 amino acids, which is predominantly emitted by the muscle cells (myocytes) of the atrium of the heart. It is stored in the atrium as a pro-hormone made of 126 amino acids and is cleaved by serine protease corine into an N-terminal part and the biologically active ANF, which is often used as a cardiac-specific marker protein. In cell differentiation measurements, i.e. in determining the extent to which certain cells have become “cardiac cell-like” by differentiation, often a reporter gene located downstream of the ANF gene is used, as it expression product is easier to detect than the concentration of ANF in a cellular culture, for example, a luciferase gene. Luciferase in an enzyme which catalyzes the oxidation of a luminescent substrate (luciferine). While that happens, light is emitted, and the intensity of that light is correlated with the expression level of ANF and can therefore serve as a measure of ANF expression.
Initial attempts of ANF expression screenings were performed with P19 cells, i.e. murine embryonal carcinoma cells obtained from the ATCC, or C2C12 cells, i.e. a murine myoblast cell line, as models. In preparation, a plasmid was first constructed by amplifying a gene fragment containing a rat ANF promoter region and subcloning it into the PCL3-BV luciferase reporter plasmid of Promega. The P19 cells were temporarily transfected with said plasmid and cultured in Modified Eagle's Medium alpha (MEM-α) with 7.5% neonatal calf serum and 2.5% fetal bovine serum at 37° C. under 5% CO2 in monolayers for 8 days, during which the medium was exchanged three times. The respective compounds were added at about 60% confluence in DMSO as solvents at a concentration of 1 μM or DMSO alone (as a blank). The luminescence of the samples was measured with a Perkin Elmer Victor V 1420 Multilabel Counter. Their increase or decrease in the presence of the compounds of formula (I) is given in Table 1 below in relation to the blank.
The evaluations have the following meanings: • − decrease of luminescence compared to the blank value; • + measurable increase; • ++ at least 1.5-fold increase; • +++ at least 2-fold increase; • * represents C2C12 cells; and • ** represents P19 cells.

| Structure (SMILES) | melting point | fold induction at 1 µM [1] | Evaluation (luminescence in relation to the blank) [1] | increased ANF expression (peak value) ([1]; P19 cells, 1 μM, relative to blank) |
| --- | --- | --- | --- | --- |
| COc1ccc(Oc2nc(Nc3cccc(C(=O)O)c3)nc(Oc3ccc(C=O)cc3OC)n2)cc1 [(37), 3-{[4-(4-formyl-2-methoxyphenoxy)-6-(4-methoxyphenoxy)-1,3,5-triazin-2-yl]amino}benzoic acid] | 180 to 182 °C |  |  |  |
| O=C(O)c1cccc(Nc2nc(Oc3ccccc3)nc(Oc3cccc([N+](=O)[O-])c3)n2)c1 [(35), 3-{[4-(3-nitrophenoxy)-6-phenoxy-1,3,5-triazin-2-yl]amino}benzoic acid] | 225 to 228 °C | ≥ 1.5 |  |  |
| COc1ccc(Oc2nc(Nc3cccc(C(=O)OC(C)(C)C)c3)nc(Oc3ccccc3)n2)cc1 [(23), 3-{[4-(4-methoxyphenoxy)-6-phenoxy-1,3,5-triazin-2-yl]amino}benzoic acid t-butyl ester] | 68 to 70 °C |  |  |  |
| O=C(O)c1cccc(Nc2nc(Oc3ccccc3)nc(Oc3ccc(Cl)cc3)n2)c1 [(29), 3-{[4-(4-chlorophenoxy)-6-phenoxy-1,3,5-triazin-2-yl]amino}benzoic acid] | 244 to 247 °C | ≥ 2 |  |  |
| COc1ccc(Oc2nc(Nc3cccc(C(=O)OC(C)(C)C)c3)nc(Oc3ccc(C#N)cc3)n2)cc1 [(28), 3-{[4-(4-cyanophenoxy)-6-(4-methoxyphenoxy)-1,3,5-triazin-2-yl]-amino}benzoic acid t-butyl ester] | 161 to 164 °C |  |  |  |
| OCc1cccc(Nc2nc(Oc3ccccc3)nc(Oc3cccc(Cl)c3)n2)c1 [(42), {3-[(4-(3-chlorophenoxy)-6-phenoxy-1,3,5-triazin-2-yl)amino]phenyl}-methanol] |  |  | +** and (42) (m-chloro): + |  |
| CC(C)(C)OC(=O)c1cccc(Nc2nc(Oc3ccccc3)nc(Oc3ccc(C(C)(C)C)cc3)n2)c1 [(22), 3-{[4-(4-t-butylphenoxy)-6-phenoxy-1,3,5-triazin-2-yl]amino}benzoic acid t-butyl ester] | 139 to 141 °C |  |  |  |
| COC(=O)c1cccc(Nc2nc(Oc3ccccc3)nc(Oc3cccc([N+](=O)[O-])c3)n2)c1 [(13), 3-{[4-(3-nitrophenoxy)-6-phenoxy-1,3,5-triazin-2-yl]amino}benzoic acid methyl ester] |  |  | −** |  |
| OCc1cccc(Nc2nc(Oc3ccccc3)nc(Oc3ccccc3Cl)n2)c1 [(43), {3-[(4-(2-chlorophenoxy)-6-phenoxy-1,3,5-triazin-2-yl)amino]phenyl}-methanol] | 52 to 54 °C |  | −** and (43) (o-chloro): − |  |
| N#Cc1ccc(Oc2nc(Nc3cccc(C(=O)O)c3)nc(Oc3ccccc3)n2)cc1 [(34), 3-{[4-(4-cyanophenoxy)-6-phenoxy-1,3,5-triazin-2-yl]amino}benzoic acid] | 150 °C |  | +** |  |
| CC(C)(C)OC(=O)c1cccc(Nc2nc(Oc3ccccc3)nc(Oc3ccc(C#N)cc3)n2)c1 [(24), 3-{[4-(4-cyanophenoxy)-6-phenoxy-1,3,5-triazin-2-yl]amino}benzoic acid t-butyl ester] | 176.5 to 178.5 °C |  |  |  |
| COC(=O)c1cccc(Nc2nc(Oc3ccc(C#N)cc3)nc(Oc3ccc(OC)cc3)n2)c1 [(17), 3-{[4-(4-cyanophenoxy)-6-(4-methoxyphenoxy)-1,3,5-triazin-2-yl]-amino}benzoic acid methyl ester] | 132 to 134.5 °C |  |  |  |
| COc1ccc(Oc2nc(Nc3cccc(C(=O)OC(C)(C)C)c3)nc(Oc3ccc(C=O)cc3OC)n2)cc1 [(27), 3-{[4-(4-formyl-2-methoxyphenoxy)-6-(4-methoxyphenoxy)-1,3,5-triazin-2-yl]amino}benzoic acid t-butyl ester] | 88 to 106 °C |  |  |  |
| COC(=O)c1cccc(Nc2nc(Oc3ccccc3)nc(Oc3ccccc3)n2)c1 [(6), 3-[(4.6-diphenoxy-1,3,5-triazin-2-yl)amino]benzoic acid methyl ester] | 198 to 199.5 °C |  |  |  |
| COc1cc(C=O)ccc1Oc1nc(Nc2cccc(C(=O)O)c2)nc(Oc2ccccc2)n1 [(36), 3-{[4-(4-formyl-2-methoxyphenoxy)-6-phenoxy-1,3,5-triazin-2-yl]-amino}benzoic acid] | 217.5 to 220 °C | ≥ 2 |  | more than threefold |
| COC(=O)c1cccc(Nc2nc(Oc3ccccc3)nc(Oc3ccc(C(C)(C)C)cc3)n2)c1 [(10), 3-{[4-(4-t-butylphenoxy)-6-phenoxy-1,3,5-triazin-2-yl]amino}benzoic acid methyl ester] | 85 to 86 °C |  | −** |  |
| COC(=O)c1cccc(Nc2nc(Oc3ccccc3)nc(Oc3ccc(C#N)cc3)n2)c1 [(12), 3-{[4-(4-cyanophenoxy)-6-phenoxy-1,3,5-triazin-2-yl]amino}benzoic acid methyl ester] | 116.5 to 120 °C |  | −** |  |
| OCc1ccc(Nc2nc(Oc3ccccc3)nc(Oc3ccccc3)n2)cc1 [(39), {4-[(4,6-diphenoxy-1,3,5-triazin-2-yl)amino]phenyl}methanol] | 152.5 to 154 °C | ≥ 2 |  |  |
| CC(C)(C)c1ccc(Oc2nc(Nc3cccc(C(=O)O)c3)nc(Oc3ccccc3)n2)cc1 [(32), 3-{[4-(4-t-butylphenoxy)-6-phenoxy-1,3,5-triazin-2-yl]amino}benzoic acid] | 245 to 247 °C |  | +** |  |
| O=C(O)c1cccc(Nc2nc(Oc3ccccc3)nc(Oc3cccc(Cl)c3)n2)c1 [(30), 3-{[4-(3-chlorophenoxy)-6-phenoxy-1,3,5-triazin-2-yl]amino}benzoic acid] | 227 to 230 °C | ≥ 1.5 |  |  |
| COc1cc(C=O)ccc1Oc1nc(Nc2cccc(C(=O)OC(C)(C)C)c2)nc(Oc2ccccc2)n1 [(26), 3-{[4-(4-formyl-2-methoxyphenoxy)-6-phenoxy-1,3,5-triazin-2-yl]-amino}benzoic acid t-butyl ester] | 76 to 79 °C |  |  |  |
| CC(C)(C)c1ccc(Oc2nc(Nc3cccc(CO)c3)nc(Oc3ccccc3)n2)cc1 [(44), {3-[(4-(4-t-butylphenoxy)-6-phenoxy-1,3,5-triazin-2-yl)amino]phenyl}-methanol] | 47 to 50 °C | ≥ 2 |  |  |
| COC(=O)c1cccc(Nc2nc(Oc3ccc(OC)cc3)nc(Oc3ccc(C=O)cc3OC)n2)c1 [(15), 3-{[4-(4-formyl-2-methoxyphenoxy)-6-(4-methoxyphenoxy)-1,3,5-triazin-2-yl]amino}benzoic acid methyl ester] | 79 to 82 °C |  |  |  |
| CC(C)(C)OC(=O)c1cccc(Nc2nc(Oc3ccccc3)nc(Oc3ccccc3)n2)c1 [(18), 3-[(4.6-diphenoxy-1,3,5-triazin-2-yl)amino]benzoic acid t-butyl ester] | 208 to 209 °C |  |  |  |
| COC(=O)c1cccc(Nc2nc(Oc3ccc(OC)cc3)nc(Oc3ccc(Br)cc3C=O)n2)c1 [(16), 3-{[4-(4-bromo-2-formylphenoxy)-6-(4-methoxyphenoxy)-1,3,5-triazin-2-yl]amino}benzoic acid methyl ester] | 180 °C |  |  |  |
| COc1ccc(Oc2nc(Nc3cccc(CO)c3)nc(Oc3ccccc3)n2)cc1 [(45), {3-[(4-(4-methoxyphenoxy)-6-phenoxy-1,3,5-triazin-2-yl)amino]-phenyl}methanol] |  |  | +** |  |
| CC(C)(C)OC(=O)c1cccc(Nc2nc(Oc3ccccc3)nc(Oc3cccc([N+](=O)[O-])c3)n2)c1 [(25), 3-{[4-(3-nitrophenoxy)-6-phenoxy-1,3,5-triazin-2-yl]amino}benzoic acid t-butyl ester] | 137 to 148 °C |  |  |  |
| CC(C)(C)OC(=O)c1cccc(Nc2nc(Oc3ccccc3)nc(Oc3cccc(Cl)c3)n2)c1 [(20), 3-{[4-(3-chlorophenoxy)-6-phenoxy-1,3,5-triazin-2-yl]amino}benzoic acid t-butyl ester] | 187.5 to 190.5 °C |  |  |  |
| CC(C)(C)OC(=O)c1cccc(Nc2nc(Oc3ccccc3)nc(Oc3ccc(Cl)cc3)n2)c1 [(19), 3-{[4-(4-chlorophenoxy)-6-phenoxy-1,3,5-triazin-2-yl]amino}benzoic acid t-butyl ester] | 172.5 to 174 °C |  |  |  |
| CC(C)(C)OC(=O)c1cccc(Nc2nc(Oc3ccccc3)nc(Oc3ccccc3Cl)n2)c1 [(21), 3-{[4-(2-chlorophenoxy)-6-phenoxy-1,3,5-triazin-2-yl]amino}benzoic acid t-butyl ester] | 191 to 192 °C |  |  |  |
